Test results as given in US20090018106A1, “INTRAVENOUS FORMULATIONS OF PYRIDOXAL 5'- PHOSPHATE AND METHOD OF PREPARATION” (Medicure International Inc., priority 2005, published 2009).
Like-named read-outs stand apart in the source and are kept apart here.

Assay: Single intravenous dose escalation of P5P, plasma pharmacokinetics (Examples Two and Three)
Type: in vivo, human
Conditions: for Cmax / MRT / Tmax / half-life / AUC(0-inf) / AUC(0-t): both sexes, human; for Cmax / MRT / Tmax / half-life: plasma, iv; for AUC(0-t): read-out: AUC (0-t)
Experimental: A phase one clinical trial was conducted to compare the pharmacokinetics of intravenously administered P5P and orally administered P5P. The trial was a single dose escalation study.
For intravenous administration, P5P was administered by bolus injection under fasting conditions. The following doses of P5P were studied: 1, 5, 10, and 20 mg/kg. 6 subjects were assigned to each dosage group.
P5P, pyridoxal, and 4-pyridoxic acid were evaluated in both plasma and urine over a 24 hour interval following either intravenous or oral dosing. The results are set out below in Tables 2 and 3.
Methodology—This was a single-blind, single-dose escalation, non-randomized, 4-phase, non-crossover study designed to evaluate the safety and […] subjects under fasting conditions and to estimate pharmacokinetic parameters of P5P.
Subjects were assigned to one of the four groups (six subjects per group) under fasting conditions.
Concentrations of pyridoxal-5′-phosphate (P5P) were measured from the plasma samples collected over a 24-bour interval after dosing in each phase.
Pharmacokinetic parameters: AUCt, AUCinf, Cmax, Tmax, Kel, Thalf, Vd, CL, MRT and F were estimated based on pyridoxal-5′-phosphate (P5P) plasma levels for each subject that was in the final data set.
The test product used was a P5P Intravenous Injectable Solution, 50 mg/ml, which was prepared in accordance with the methods of Example 1 (CanAm BioResearch Inc. Canada); Lot No.: LP1459: Manufacturing Date: 12/03. A single 1, 5, 10 or 20 mg/kg dose was given by intravenous injection. The duration of treatment was a single dose.
Secondary Endpoint—Pharmacokinetic (PK) Parameters—Plasma concentrations of pyridoxal-5′-phosphate (P5P) were measured by a validated analytical method. Based on these concentration levels, AUCt, AUCinf, Cmax, Tmax, Kel, Thalf, Vd, CL, MRT and F were estimated.
Statistical Methods—Descriptive statistics were calculated by treatments for the estimated pharmacokinetic parameters.

[1] = Group 1, P5P 1 mg/kg single iv, plasma PAL, mean
[2] = Group 2, P5P 5 mg/kg single iv, plasma PAL, mean
[3] = Group 3, P5P 10 mg/kg single iv, plasma PAL, mean
[4] = Group 4, P5P 20 mg/kg single iv, plasma PAL, mean
[5] = 1 mg/kg, Group 1, P5P 1 mg/kg single iv, plasma PAL, mean
[6] = 5 mg/kg, Group 2, P5P 5 mg/kg single iv, plasma PAL, mean
[7] = 10 mg/kg, Group 3, P5P 10 mg/kg single iv, plasma PAL, mean
[8] = 20 mg/kg, Group 4, P5P 20 mg/kg single iv, plasma PAL, mean
[9] = ln(pK Parameter) = b0 + b1 * ln (Dose)
[10] = ln(pK Parameter) = b0 + b1 * ln (Dose), single iv 1-20 mg/kg

Kel [1]: 0.198 h⁻¹ | Kel [2]: 0.18 h⁻¹ | Kel [3]: 0.167 h⁻¹ | Kel [4]: 0.177 h⁻¹ | Cmax [5]: 0.591 µg/mL | MRT [5]: 3.7 h | Tmax [5]: 0.46 h | half-life (1 mg/kg, Group 1, P5P 1 mg/kg single iv, plasma PAL, mean, read-out: T½ (converted)): 3.96 h | Cmax [6]: 2.48 µg/mL | MRT [6]: 4.4 h | Tmax [6]: 0.71 h | half-life (5 mg/kg, Group 2, P5P 5 mg/kg single iv, plasma PAL, mean, read-out: T½ (converted)): 4.25 h | Cmax [7]: 13.3 µg/mL | MRT [7]: 3.68 h | Tmax [7]: 0.42 h | half-life (10 mg/kg, Group 3, P5P 10 mg/kg single iv, plasma PAL, mean, read-out: T½ (converted)): 4.2 h | Cmax [8]: 25.9 µg/mL | MRT [8]: 3.98 h | Tmax [8]: 0.32 h | half-life (20 mg/kg, Group 4, P5P 20 mg/kg single iv, plasma PAL, mean, read-out: T½ (converted)): 4.01 h | half-life (over all single iv doses of P5P (1-20 mg/kg), read-out: apparent elimination half-life (converted)): ~4 h | AUC(0-inf) [1]: 2.07 µg·h/mL | AUC(0-t) [1]: 2.02 µg·h/mL | AUC(0-inf) [2]: 10.4 µg·h/mL | AUC(0-t) [2]: 10.1 µg·h/mL | AUC(0-inf) [3]: 39.5 µg·h/mL | AUC(0-t) [3]: 39.1 µg·h/mL | AUC(0-inf) [4]: 95.2 µg·h/mL | AUC(0-t) [4]: 94.4 µg·h/mL | Significance of b1, lnAUCi [9]: <0.0001 | Significance of b1, lnCmax [9]: <0.0001 | Significance of b1, lnMRT [9]: 0.5671 | Significance of b1, lnThalf [9]: 0.5604 | Coef. for Dose (b1), lnAUCi [10]: 1.30 | Coef. for Dose (b1), lnCmax [10]: 1.30 | Coef. for Dose (b1), lnMRT [10]: 0.02 | Coef. for Dose (b1), lnThalf [10]: 0.03 | Intercept (b0), lnAUCi [10]: 0.56 | Intercept (b0), lnCmax [10]: −0.72 | Intercept (b0), lnMRT [10]: 1.33 | Intercept (b0), lnThalf [10]: 1.33
SMILES: Cc1ncc(CO)c(C=O)c1O [PAL, pyridoxal]
dose relationship of plasma AUCinf and Cmax (single iv P5P 1-20 mg/kg): increase more than expected based on dose
